Data published in patent publication US20230085307A1, “PYRIDAZINONE COMPOUND AND HERBICIDE” (NISSAN CHEMICAL CORPORATION, priority 2019, published 2023).

Key:
redroot pigweed [1] = assay: Test Example 4: herbicidal effect by soil treatment (Table 19, symbol N); assay type: in vivo, redroot pigweed (Amaranthus retroflexus); details: amount of applied herbicide 320 g/ha
Method in brief: (§1)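 Seeds were sown in sterilized diluvial soil and covered with about 1.5 cm of soil. An emulsion formulation diluted with water to a predetermined herbicide amount was sprayed evenly onto the soil surface. Plants grew in a greenhouse at 25° C. to 30° C., and the effect was scored three weeks after application using criteria from an earlier test.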

lambsquarters [2] = assay: Test Example 4: herbicidal effect by soil treatment (Table 19, symbol O); assay type: in vivo, lambsquarters (Chenopodium album); details: amount of applied herbicide 320 g/ha
Method in brief: as §1

windgrass [3] = assay: Test Example 5: herbicidal effect by foliage application, plastic box (Table 20, symbol L); assay type: in vivo, windgrass (Apera spica-venti); details: foliage application, 320 g/ha, three weeks after application
Method in brief: (§2)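 Plants sown in sterilized diluvial soil and grown 14 days in a greenhouse at 25° C to 30° C, then sprayed on the foliage with the compound's emulsion diluted in water to a predetermined herbicide amount. Injury to weeds and crops scored three weeks after application on a visual rating scale.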

green foxtail [4] = assay: Test Example 5: herbicidal effect by foliage application, plastic box (Table 20, symbol G); assay type: in vivo, green foxtail (Setaria viridis); details: foliage application, 320 g/ha, three weeks after application
Method in brief: as §2

blackgrass [5] = assay: Test Example 5: herbicidal effect by foliage application, plastic box (Table 20, symbol J); assay type: in vivo, blackgrass (Alopecurus myosuroides); details: foliage application, 320 g/ha, three weeks after application
Method in brief: as §2

velvetleaf [6] = assay: Test Example 5: herbicidal effect by foliage application, plastic box (Table 20, symbol M); assay type: in vivo, velvetleaf (Abutilon theophrasti); details: foliage application, 320 g/ha, three weeks after application
Method in brief: as §2

Chinese sprangletop = assay: Test Example 3: herbicidal effect by foliage application, Wagner pot (Table 18, symbol D); assay type: in vivo, chinese sprangletop (Leptochloa chinensis); details: amount of applied herbicide 320 g/ha
Method in brief: (§3)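 Plants were sown in alluvial soil held under 0.1–0.5 cm standing water and grown 14 days in a greenhouse at 25–30 °C. An emulsifiable formulation, water-diluted to the set dose, was then sprayed onto the foliage, and effects were scored three weeks later using previously defined criteria.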

barnyard grass [7] = assay: Test Example 5: herbicidal effect by foliage application, plastic box (Table 20, symbol H); assay type: in vivo, barnyard grass (Echinochloa crus-galli); details: foliage application, 320 g/ha, three weeks after application
Method in brief: as §2

wild oat [8] = assay: Test Example 4: herbicidal effect by soil treatment (Table 19, symbol I); assay type: in vivo, wild oat (Avena fatua); details: amount of applied herbicide 320 g/ha
Method in brief: as §1

green foxtail [9] = assay: Test Example 4: herbicidal effect by soil treatment (Table 19, symbol G); assay type: in vivo, green foxtail (Setaria viridis); details: amount of applied herbicide 320 g/ha
Method in brief: as §1

southern crabgrass [10] = assay: Test Example 4: herbicidal effect by soil treatment (Table 19, symbol F); assay type: in vivo, southern crabgrass (Digitaria ciliaris); details: amount of applied herbicide 320 g/ha
Method in brief: as §1

Italian ryegrass [11] = assay: Test Example 4: herbicidal effect by soil treatment (Table 19, symbol K); assay type: in vivo, Italian ryegrass (Lolium multiflorum); details: amount of applied herbicide 320 g/ha
Method in brief: as §1

lambsquarters [12] = assay: Test Example 5: herbicidal effect by foliage application, plastic box (Table 20, symbol O); assay type: in vivo, lambsquarters (Chenopodium album); details: foliage application, 320 g/ha, three weeks after application
Method in brief: as §2

wild oat [13] = assay: Test Example 5: herbicidal effect by foliage application, plastic box (Table 20, symbol I); assay type: in vivo, wild oat (Avena fatua); details: foliage application, 320 g/ha, three weeks after application
Method in brief: as §2

chickweed [14] = assay: Test Example 4: herbicidal effect by soil treatment (Table 19, symbol P); assay type: in vivo, common chickweed (Stellaria media); details: amount of applied herbicide 320 g/ha
Method in brief: as §1

persian speedwell [15] = assay: Test Example 4: herbicidal effect by soil treatment (Table 19, symbol R); assay type: in vivo, Persian speedwell (Veronica persica); details: amount of applied herbicide 320 g/ha
Method in brief: as §1

chickweed [16] = assay: Test Example 5: herbicidal effect by foliage application, plastic box (Table 20, symbol P); assay type: in vivo, common chickweed (Stellaria media); details: foliage application, 320 g/ha, three weeks after application
Method in brief: as §2

blackgrass [17] = assay: Test Example 4: herbicidal effect by soil treatment (Table 19, symbol J); assay type: in vivo, blackgrass (Alopecurus myosuroides); details: amount of applied herbicide 320 g/ha
Method in brief: as §1

Italian ryegrass [18] = assay: Test Example 5: herbicidal effect by foliage application, plastic box (Table 20, symbol K); assay type: in vivo, Italian ryegrass (Lolium multiflorum); details: foliage application, 320 g/ha, three weeks after application
Method in brief: as §2

barnyard grass [19] = assay: Test Example 4: herbicidal effect by soil treatment (Table 19, symbol H); assay type: in vivo, barnyard grass (Echinochloa crus-galli); details: amount of applied herbicide 320 g/ha
Method in brief: as §1

velvetleaf [20] = assay: Test Example 4: herbicidal effect by soil treatment (Table 19, symbol M); assay type: in vivo, velvetleaf (Abutilon theophrasti); details: amount of applied herbicide 320 g/ha
Method in brief: as §1

persian speedwell [21] = assay: Test Example 5: herbicidal effect by foliage application, plastic box (Table 20, symbol R); assay type: in vivo, Persian speedwell (Veronica persica); details: foliage application, 320 g/ha, three weeks after application
Method in brief: as §2

barnyard grass [22] = assay: Test Example 3: herbicidal effect by foliage application, Wagner pot (Table 18, symbol H); assay type: in vivo, barnyard grass (Echinochloa crus-galli); details: amount of applied herbicide 320 g/ha
Method in brief: as §3

redroot pigweed [23] = assay: Test Example 5: herbicidal effect by foliage application, plastic box (Table 20, symbol N); assay type: in vivo, redroot pigweed (Amaranthus retroflexus); details: foliage application, 320 g/ha, three weeks after application
Method in brief: as §2

windgrass [24] = assay: Test Example 4: herbicidal effect by soil treatment (Table 19, symbol L); assay type: in vivo, windgrass (Apera spica-venti); details: amount of applied herbicide 320 g/ha
Method in brief: as §1

southern crabgrass [25] = assay: Test Example 5: herbicidal effect by foliage application, plastic box (Table 20, symbol F); assay type: in vivo, southern crabgrass (Digitaria ciliaris); details: foliage application, 320 g/ha, three weeks after application
Method in brief: as §2

rice flat sedge = assay: Test Example 3: herbicidal effect by foliage application, Wagner pot (Table 18, symbol E); assay type: in vivo, rice flat sedge (Cyperus iria); details: amount of applied herbicide 320 g/ha
Method in brief: as §3

CON=C(C)c1ccc(-c2sc3cc(F)ccc3c2-c2c(O)c(C)nn(C)c2=O)cc1 [3-017]
herbicidal effect, N: redroot pigweed (redroot pigweed [1]): 5 (Herbicidal rate of 90% or more (almost completely withered)) | herbicidal effect, O: lambsquarters (lambsquarters [2]): 4 (Herbicidal rate of 70% or more and less than 90%) | L: windgrass, herbicidal effect grade (windgrass [3]): 2 (Herbicidal rate of 20% or more and less than 40%) | G: green foxtail, herbicidal effect grade (green foxtail [4]): 5 (Herbicidal rate of 90% or more (almost completely withered)) | J: blackgrass, herbicidal effect grade (blackgrass [5]): 3 (Herbicidal rate of 40% or more and less than 70%) | M: velvetleaf, herbicidal effect grade (velvetleaf [6]): 3 (Herbicidal rate of 40% or more and less than 70%) | herbicidal effect on D: Chinese sprangletop (Chinese sprangletop): 0 (Herbicidal rate of 5% or less (almost no effect)) | H: barnyard grass, herbicidal effect grade (barnyard grass [7]): 2 (Herbicidal rate of 20% or more and less than 40%) | herbicidal effect, I: wild oat (wild oat [8]): 0 (Herbicidal rate of 5% or less (almost no effect)) | herbicidal effect, G: green foxtail (green foxtail [9]): 0 (Herbicidal rate of 5% or less (almost no effect)) | herbicidal effect, F: southern crabgrass (southern crabgrass [10]): 0 (Herbicidal rate of 5% or less (almost no effect)) | herbicidal effect, K: Italian ryegrass (Italian ryegrass [11]): 3 (Herbicidal rate of 40% or more and less than 70%) | O: lambsquarters, herbicidal effect grade (lambsquarters [12]): 5 (Herbicidal rate of 90% or more (almost completely withered)) | I: wild oat, herbicidal effect grade (wild oat [13]): 1 (Herbicidal rate of 5% or more and less than 20%) | herbicidal effect, P: chickweed (chickweed [14]): 1 (Herbicidal rate of 5% or more and less than 20%) | herbicidal effect, R: persian speedwell (persian speedwell [15]): 3 (Herbicidal rate of 40% or more and less than 70%) | P: chickweed, herbicidal effect grade (chickweed [16]): 5 (Herbicidal rate of 90% or more (almost completely withered)) | herbicidal effect, J: blackgrass (blackgrass [17]): 0 (Herbicidal rate of 5% or less (almost no effect)) | K: Italian ryegrass, herbicidal effect grade (Italian ryegrass [18]): 4 (Herbicidal rate of 70% or more and less than 90%) | herbicidal effect, H: barnyard grass (barnyard grass [19]): 0 (Herbicidal rate of 5% or less (almost no effect)) | herbicidal effect, M: velvetleaf (velvetleaf [20]): 0 (Herbicidal rate of 5% or less (almost no effect)) | R: persian speedwell, herbicidal effect grade (persian speedwell [21]): 5 (Herbicidal rate of 90% or more (almost completely withered)) | herbicidal effect on H: barnyard grass (barnyard grass [22]): 3 (Herbicidal rate of 40% or more and less than 70%) | N: redroot pigweed, herbicidal effect grade (redroot pigweed [23]): 5 (Herbicidal rate of 90% or more (almost completely withered)) | herbicidal effect, L: windgrass (windgrass [24]): 0 (Herbicidal rate of 5% or less (almost no effect)) | F: southern crabgrass, herbicidal effect grade (southern crabgrass [25]): 3 (Herbicidal rate of 40% or more and less than 70%) | herbicidal effect on E: rice flat sedge (rice flat sedge): 0 (Herbicidal rate of 5% or less (almost no effect))
